Read-outs that look alike come from different tables or passages of the source.
Columns and labels:
Format in all cases: cell-based
[1] = test system: Transmissible Gastroenteritis Virus (TGEV) spike (S) and nucleocapsid (N) proteins; assay: Inhibition of TGEV protein production (indirect immunofluorescent assay in ST cells)
Protocol: Swine testicular (ST) cells were cultured in a 96-well plate in the presence or absence of a test compound (at 8 different concentrations) for 2 hours and then infected with TGEV at a MOI of 10. Six hours after TGEV infection, the ST cells were fixed with 80% acetone and subjected to an indirect immunofluorescent assay (IFA) to examine the levels of TGEV spike (S) and nucleocapsid (N) proteins. Briefly, the fixed cells were incubated with murine monoclonal antibodies specific to these two viral proteins for a sufficient period to allow binding of the antibodies to the viral proteins. After being washed with phosphate-buffered saline for three times, the cells were incubated with a fluorescein isothiocyanate-conjugated anti-mouse immunoglobulin antibody (ICN Pharmaceuticals, Inc./Cappel) for 60 min at room temperature. The cells were washed again with phosphate-buffered saline for three times, and the fluorescence intensities released from these cells were measured by a Wallac Victor II system (Packard, Inc.) at excitation and emission wavelengths 485 nm and 535 nm, respectively. The 50% effective concentration (EC50) for inhibiting S and N protein expression of the test compound was determined based on the florescence intensity values thus measured. Alternatively, the fluorescence intensities were detected by fluorescence microscopy. More specifically, the fluorescent images produced under 485 nm and 535 nm were captured by a charge-coupled device linked to a Leica IM50 Image Manager.

[2] = test system: NCI H460, MCF7, SF268, HONE-1, NUGC-3, HepG2 and A549 cells; assay: Inhibition of cancer cell growth (MTS assay); details: Homo sapiens, tested cancer cells, 72 h, read-out: CC50 (concentration required to reduce the cancer cell growth by 50%)
Protocol: NCI H460 (human lung cancer cell line), MCF7 (human breast cancer cell line), SF268 (human brain cancer cell line), HONE-1 (human nasopharyngeal epithelial carcinomas cell line), NUGC-3 (human gastric cancer cell line) cells, HepG2 (human hepatocellular carcinoma cell line), and A549 (human lung adenocarcinoma epithelial cell line) were maintained in DMEM medium containing 10% fetal bovine serum, seeded in 96-well plates (2500, 6500, 7500, 4500, 6000, 10000, or 5000 cells/well), and incubated at 37° C. with 5% CO2 supply for 24 h. The cells were then incubated with or without a test compound (at five different concentrations) in a CO2 incubator at 37° C. for 72 h. The number of viable cells in each well was determined by the tetrazolium dye reduction assay (MTS assay) according to the protocol provided by the manufacturer (Promega, Madison, Wis., USA). For each test compound, a dose-response curve was drawn based on the concentrations of the compound versus the numbers of viable cells treated with the compound at those concentrations. The CC50 value of that compound, referring to the concentration of the compound required to reduce the cancer cell growth by 50%, was determined according to the dose-response curve.

[3] = test system: NO production in RAW 264.7 cells; assay: Inhibition of nitric oxide production (Nitrate/Nitrite assay, Griess reagent); details: Mus musculus, RAW264.7, LPS (10 μg/ml)/IFNγ (20 ng/ml), 18-24 h, read-out: EC50 value for inhibiting nitric oxide production
Protocol: RAW 264.7 cells were seeded (70,000 cells/well) and cultured in a 96-well culture plate using the DMEM medium described above. 24 hours later, the medium was replaced with a fresh DMEM medium supplemented with LPS (10 μg/ml)/IFNγ (20 ng/ml). Test compounds (at different concentrations) were then added. The cells, incubated with or without test compounds, were then cultured for 18-24 h and the nitrate and nitric oxide levels in the culturing medium were measured using a Nitrate/Nitrite assay kit (Cayman Chemical). Nitrate was reduced to nitrite with nitrate reductase and determined spectrophotometrically with Griess reagent at OD540. For each test compound, a dose-response curve was drawn based on the concentrations of the compound versus the corresponding nitrate/nitric oxide levels in the culturing media of the cells treated with the compound. The EC50 value of that compound for inhibiting nitric oxide production was determined according to the dose-response curve.

[4] = Alphacoronavirus 1, read-out: EC50 for inhibiting S and N protein expression
[5] = Alphacoronavirus 1, ST cells, compound 2 hours before TGEV infection at MOI of 10, read six hours after infection, read-out: EC50 for inhibiting S and N protein expression

For `CCCN1CCc2c(c3cc(OC)c(OC)cc3c3c(OC)c(OC)c(OC)cc23)C1` [Compound 2], the EC50 [1, 4] was less than 1000 nM and the CC50 [2] was less than 50 µM.

`CCCN1Cc2c(c3cc(OC)c(OC)cc3c3cc(OC)c(OC)cc23)C(O)C1` (centres unmarked) [Compound 10] gave an EC50 [3] of less than 1000 nM, an EC50 [1, 5] of less than 1000 nM and a CC50 [2] of less than 50 µM.

Molecule `CCN1CCc2c(c3cc(OC)c(OC)cc3c3cc(OC)c(OC)cc23)C1` [Compound 18] has a CC50 [2] of less than 50 µM.

Work on `CCN1Cc2c(c3ccc(OC)cc3c3cc(OC)c(OC)cc23)C(O)C1` (centres unmarked) [Compound 33] yielded an EC50 [3] of less than 1000 nM and a CC50 [2] of less than 50 µM.

For `CCN1CCc2c(c3cc(OC)ccc3c3cc(OC)c(OC)cc23)C1` [Compound 30], the CC50 [2] was less than 50 µM.

`COc1cc2c3c(c4cc(OC)c(OC)cc4c2cc1OC)CN(C1C=CCCC1)CC3` (centres unmarked) [Compound 34] gave a CC50 [2] of less than 50 µM.

`CCCCN1CCc2c(c3cc(OC)c(OC)cc3c3cc(OC)ccc23)C1` [Compound 7] showed a CC50 [2] of less than 50 µM.

Work on `CCCN1CCc2c(c3cc(OC)ccc3c3c(OC)c(OC)ccc23)C1` [Compound 32] yielded a CC50 [2] of less than 50 µM.

With `COc1cc2c3c(c4cc(OC)c(OC)cc4c2cc1OC)CN(CC(C)C)CC3` [Compound 21] the CC50 [2] was less than 50 µM.

With `COc1cc2c3c(c4cc(OC)c(OC)cc4c2cc1OC)C(O)CN(C(C)C)C3` (centres unmarked) [Compound 14] the EC50 [3] was less than 1000 nM and the CC50 [2] was less than 50 µM.

Molecule `COc1cc2c3c(c4cc(OC)c(OC)c(OC)c4c2cc1OC)CCN(C(C)C)C3` [Compound 4] has an EC50 [1, 5] of less than 1000 nM and a CC50 [2] of less than 50 µM.

In the case of `CCN1CCc2c(c3cc(OC)c(OC)cc3c3c(OC)c(OC)c(OC)cc23)C1` [Compound 1], the EC50 [3] is reported as less than 1000 nM, the EC50 [1, 4] is reported as less than 1000 nM and the CC50 [2] is reported as less than 50 µM.

`COc1cc2c3c(c4cc(OC)c(OC)cc4c2cc1OC)CN(CCC1OCCO1)CC3` [Compound 24] gave a CC50 [2] of less than 50 µM.

Molecule `CCCCN1CCc2c(c3cc(OC)c(OC)cc3c3c(OC)c(OC)c(OC)cc23)C1` [Compound 3] has a CC50 [2] of less than 50 µM.

`CCCN1Cc2c(c3cc(OC)c(OC)c(OC)c3c3cc(OC)c(OC)cc23)C(O)C1` (centres unmarked) [Compound 8] showed an EC50 [1, 5] of less than 1000 nM and a CC50 [2] of less than 50 µM.

In the case of `CCCN1CCc2c(c3cc(OC)ccc3c3cc(OC)c(OC)cc23)C1` [Compound 31], the CC50 [2] is reported as less than 50 µM.

`COc1cc2c3c(c4cc(OC)c(OC)cc4c2cc1OC)CN(CCNC(=O)OC(C)(C)C)CC3` [Compound 35] was tested, and the CC50 [2] was less than 50 µM.

In the case of `CCCN1CCc2c(c3cc(OC)c(OC)cc3c3cc(OC)ccc23)C1` [Compound 6], the EC50 [1, 5] is reported as less than 1000 nM and the CC50 [2] is reported as less than 50 µM.

`CCCN1CCc2c(c3cc(OC)c(OC)cc3c3cc(OC)c(OC)cc23)C1` [Compound 19] showed an EC50 [1, 4] of less than 1000 nM and a CC50 [2] of less than 50 µM.

`CCN1Cc2c(c3cc(OC)c(OC)cc3c3cc(OC)c(OC)cc23)C(O)C1` (centres unmarked) [Compound 9] was tested, and the EC50 [3] was less than 1000 nM, the EC50 [1, 5] was less than 1000 nM and the CC50 [2] was less than 50 µM.

Molecule `COc1cc2c3c(c4cc(OC)c(OC)cc4c2cc1OC)CN(CCN)CC3` [Compound 36] has a CC50 [2] of less than 50 µM.

`CCCN1CCc2c(c3ccc(OC)cc3c3cc(OC)c(OC)cc23)C1` [Compound 29] showed a CC50 [2] of less than 50 µM.

With `CCCCN1CCc2c(c3cc(OC)c(OC)cc3c3cc(OC)c(OC)cc23)C1` [Compound 20] the CC50 [2] was less than 50 µM.

Work on `COc1cc2c3c(c4cc(OC)c(OC)cc4c2cc1OC)CN(C(C)C)CC3` [Compound 25] yielded an EC50 [3] of less than 1000 nM, an EC50 [1, 4] of less than 1000 nM and a CC50 [2] of less than 50 µM.

Molecule `CCN1CCc2c(c3cc(OC)c(OC)cc3c3cc(OC)ccc23)C1` [Compound 5] has an EC50 [1, 5] of less than 1000 nM and a CC50 [2] of less than 50 µM.

For `CCC(C)N1CCc2c(c3cc(OC)c(OC)cc3c3cc(OC)c(OC)cc23)C1` (centres unmarked) [Compound 26], the EC50 [1, 4] was less than 1000 nM and the CC50 [2] was less than 50 µM.

`COc1cc2c3c(c4cc(OC)c(OC)cc4c2cc1OC)CN(CC1OCCO1)CC3` [Compound 23] showed a CC50 [2] of less than 50 µM.

From patent publication US8486959B2, “Dibenzo[f,h]isoquinoline derivatives” (National Health Research Institutes, priority 2010, dated 2013)
